Legend:
Format in all cases: cell-based, mouse
[1] = tested on: Hsp70 level in Neuro-2a cells; assay: Hsp70 level analysis by Western blot in Neuro-2a cells; settings: compound 10 µM 1 h, then PQ 500 µM 24 h
Experimental: The Hsp70 expression was detected by Western blot analysis. Cell suspensions (1.6 × 10^5 cells/well of a 6-well plate) were seeded and treated with studied compounds at a concentration of 10 µM for 1 h. After that, PQ (500 µM) was added and cells were incubated during 24 h. Cells incubated without PQ and compounds and with PQ alone were used as positive and negative controls, respectively. Cells were washed by cold PBS (BioloT, Russia) twice and lysed by radioimmunoprecipitation assay (RIPA) buffer (BioloT, St. Peterburg, Russia). The amount of proteins was measured by the Bradford method and equal samples (25 µg) were prepared using sample buffer. Proteins were separated with sodium dodecyl sulphate (SDS) electrophoresis in 10% polyacrylamide gel. The electrophoretically separated proteins were transferred onto the polyvinylidene difluoride (PVDF) membrane Whatman (Sigma-Aldrich, St. Louis, MO, USA) using a semi-dry transfer apparatus (Helicon, Moscow, Russia). […] The peroxidase reaction was visualized by an enhanced chemiluminescence (ECL) kit according to the instructions of the manufacturer (Sigma-Aldrich, St. Louis, MO, USA) using the VersaDoc Imaging System (Bio-Rad, Hercules, CA, USA).

[2] = tested on: PQ-treated Neuro-2a cells; assay: Propidium iodide straining of PQ-treated Neuro-2a cells (membrane permeability); settings: compound 10 μM pre-incubation, PQ-treated cells, 24 h
Experimental: The cells (1 × 10^4 cells/well) were seeded in black 96-well plates before testing. After incubation of the cells with compounds and PQ during 24 h, PI solution (10 μg/mL) was added to each well and the plate was incubated in the dark at 37 °C for 10 min. Cells were washed with phosphate buffer saline (PBS) (BioloT, St.Peterburg, Russia) and fluorescence was measured with a Fluoroskan Ascent plate reader (Thermo Labsystems, Helsinki, Finland) at […]. All manipulations with fluorescent probes were carried out in a darkened room. The results were presented as percent of positive control data.

[3] = tested on: PQ-treated Neuro-2a cells; assay: PQ-treated Neuro-2a cell viability (FDA assay); settings: compound 1 and 10 µM, PQ 500 µM, 24 h
Experimental: A stock solution of the fluorescein diacetate (FDA) (Sigma-Aldrich, St. Louis, MO, USA) in DMSO (1 mg/mL) was prepared. The cells (1 × 10^4 cells/well) were seeded in black 96-well plates before testing. After incubation of the cells with compounds and PQ during 24 h, FDA solution (50 μg/mL) was added to each well and the plate was incubated in the dark at 37 °C for 15 min. Cells were washed with phosphate buffer saline (PBS) (BioloT, S.-Peterburg, Russia) and fluorescence was measured with a Fluoroskan Ascent plate reader (Thermo Labsystems, Helsinki, Finland) at λex = 485 nm and λem = 518 nm. All manipulations with fluorescent probes were carried out in a darkened room. Cell viability was expressed as the percent of control.
(§1) The cells (1 × 10^4 cells/well of a 96-well plate) were treated with studied compounds at concentrations of 1 and 10 µM for 1 h and then 500 µM of PQ (Sigma-Aldrich, St. Louis, MO, USA) was added to the neuroblastoma cells. Cells incubated without PQ and compounds and with PQ alone were used as positive and negative controls, respectively. The viability of cells was measured after 24 h using MTT and FDA methods. The results were presented as percent of positive control data.

[4] = tested on: PQ-treated Neuro-2a cells; assay: PQ-treated Neuro-2a cell viability (MTT assay); settings: compound 1 and 10 µM, PQ 500 µM, 24 h
Experimental: (§2) The cells (1 × 10^4 cells/well of a 96-well plate) were incubated with different concentrations of studied compounds during 24 h. After that, cell viability was determined by the MTT (3-(4,5-dimethylthiazol-2-yl)-2,5-diphenyltetrazolium bromide) method according to the manufacturer’s instructions (Sigma-Aldrich, St. Louis, MO, USA). Absorbance of the converted formazan was measured using a Multiskan FC microplate photometer (Thermo Scientific, Waltham, MA, USA) at λ = 570 nm. The results were presented as percent of control data, and concentration of cell viability inhibition on 50% (IC50) was calculated.
as §1

[5] = tested on: mitochondrial membrane potential in PQ-treated Neuro-2a cells; assay: Mitochondrial membrane potential detection (TMRM) in PQ-treated Neuro-2a cells; settings: compound 10 μM, PQ 500 µM 1 h
Experimental: The cells (1 × 10^4 cells/well of a 96-well plate) were incubated with compound solutions (1 and 10 µM) during 1 h. Then, PQ was added to cell suspension to a resulting concentration of 500 µM for incubation during 1 h. Cells incubated without PQ and compounds and with PQ alone were used as positive and negative controls, respectively. The tetramethylrhodamine methyl (TMRM) (Sigma-Aldrich, St. Louis, MO, USA) solution at 500 nM was added in each well and cells were incubated for 30 min at 37 °C. The intensity of fluorescence was measured with a PHERAstar FS plate reader (BMG Labtech, Ortenberg, Germany) at λex = 540 nm and λem = 590 nm. The data were processed by MARS Data Analysis v. 3.01R2 (BMG Labtech, Ortenberg, Germany). The results were presented as percent of positive control data.

[6] = Cytotoxicity toward Neuro-2a cells (MTT assay); settings: mouse, Neuro-2a neuroblastoma cells, 24 h
Experimental: The cells of mouse neuroblastoma cell line Neuro-2a (ATCC® CCL-131™; American Type Culture Collection, Manassas, VA, USA) were cultured in Dulbecco’s modified Eagle’s medium (DMEM) containing 10% fetal bovine serum (Biolot, St. Petersburg, Russia) and 1% penicillin/streptomycin (Biolot, St. Petersburg, Russia) at 37 °C in a humidified atmosphere with 5% (v/v) CO2. Initially, cells were incubated in cultural flasks until sub-confluent (~80%). For testing, Neuro-2a cells were seeded in 96- or 6-well plates and experiments were started after 24 h.
as §2

[7] = tested on: ROS level in PQ-treated Neuro-2a cells; assay: ROS level analysis in PQ-treated Neuro-2a cells (H2DCFDA); settings: tested at 1 and 10 μM, PQ 500 µM 1 h
Experimental: The cells (1 × 10^4 cells/well of a 96-well plate) were incubated with compound solutions (1 and 10 µM) during 1 h. Then, PQ was added to cell suspension to a resulting concentration of 500 µM for incubation during 1 h. Cells incubated without PQ and compounds and with PQ alone were used as positive and negative controls, respectively. The 20 µL of 2,7-dichlorodihydrofluorescein diacetate solution (H2DCFDA, Molecular Probes, Eugene, OR, USA) was added to each well (10 µM, final concentration) and the plate was incubated for an additional 10 min at 37 °C. The intensity of dichlorofluorescin fluorescence was measured with a PHERAstar FS plate reader (BMG Labtech, Ortenberg, Germany) at λex = 485 nm and λem = 518 nm. The data were processed by MARS Data Analysis v. 3.01R2 (BMG Labtech, Ortenberg, Germany). The results were presented as percent of positive control data.

## CC(C)=CCC[C@@H](C)[C@H]1CC[C@@]2(C(=O)O)C3=C(CC[C@]12C)[C@@]1(C)CCC(=O)C(C)(C)[C@@H]1CC3 [Compound 4, penasterone]
[1]
  increase of Hsp70 level in PQ-treated cells: 56%
[2]
  decrease of fluorescence of PI-straining cells: 17%
[3]
  effect on PQ-treated cell viability (FDA assay): did not show any effect
[4]
  effect on PQ-treated cell viability (MTT assay): did not show any effect
[5]
  increase of intensity of TMRM fluorescence (PQ-induced mitochondrial dysfunction diminished): 28%
[6]; Neuro-2a cell viability, 10 μM, read-out: Cytotoxicity (MTT Assay) % of Control at 10 μM
  activity at 24 h, 10 µM: 95.3 ± 2.7%
[6]; Neuro-2a cells
  IC50 at 24 h: > 100 µM
[7]
  concentrations at which ROS content in PQ-treated cells was reduced: effective at concentrations of 1 and 10 μM

Reference: PMC7698842, “Lanostane Triterpenoid Metabolites from a Penares sp. Marine Sponge Protect Neuro-2a Cells against Paraquat Neurotoxicity” (Molecules, 2020)
